Legend:
BT-549 [1] = assay: in vitro inhibition of breast (BT-549) cancer cell line; format: functional; conditions: Homo sapiens
HL-60 = assay: in vitro inhibition of leukemia (HL-60(TB)) cancer cell line; format: functional; conditions: Homo sapiens
MDA-N = assay: in vitro inhibition of breast (MDA-N) cancer cell line; format: functional; conditions: Homo sapiens
LOX IMVI = assay: in vitro inhibition of melanoma(LOX IMVI) cancer cell line; format: functional; conditions: Homo sapiens
MDA-MB-435 = assay: in vitro inhibition of breast (MDA-MB-435) cancer cell line; format: functional; conditions: Homo sapiens
Malme-3M = assay: in vitro inhibition of melanoma (MALME-3M) cancer cell line; format: functional; conditions: Homo sapiens
M14 = assay: in vitro inhibition of melanoma (M14) cancer cell line; format: functional; conditions: Homo sapiens
NCI-H23 = assay: in vitro inhibition of non-small-cell lung (NCI-H23) cancer cell line; format: functional; conditions: Homo sapiens
NCI-H522 = assay: in vitro inhibition of non-small-cell lung (NCI-H522) cancer cell line; format: functional; conditions: Homo sapiens
OVCAR-8 = assay: in vitro inhibition of ovarian (OVCAR-8) cancer cell line; format: functional; conditions: Homo sapiens
SK-MEL-2 [2] = assay: in vitro inhibition of melanoma (SK-MEL-2) cancer cell line; format: functional; conditions: Homo sapiens
SK-MEL-28 = assay: in vitro inhibition of melanoma (SK-MEL-28) cancer cell line; format: functional; conditions: Homo sapiens
UACC-62 = assay: in vitro inhibition of melanoma (UACC-62) cancer cell line; format: functional; conditions: Homo sapiens
UACC-257 = assay: in vitro inhibition of melanoma (UACC-257) cancer cell line; format: functional; conditions: Homo sapiens
Hs-578T = assay: in vitro inhibition of breast (HS 578T) cancer cell line; format: functional; conditions: Homo sapiens
SK-MEL-5 = assay: in vitro inhibition of melanoma (SK-MEL-5) cancer cell line; format: functional; conditions: Homo sapiens
OVCAR-3 = assay: in vitro inhibition of ovarian (OVCAR-3) cancer cell line; format: functional; conditions: Homo sapiens
BT-549 [3] = assay: in vitro inhibition of breast (BT-549) cancer cell line; conditions: Homo sapiens
CAKI-1 = assay: cytotoxic activity against […] cancer cell line; format: functional, cell-based; conditions: Homo sapiens
HCT-8 = assay: cytotoxic activity against […] cancer cell line; format: functional, cell-based; conditions: Homo sapiens
KB = assay: cytotoxic activity against […] cancer cell line; format: functional, cell-based; conditions: Homo sapiens
MCF7 = assay: cytotoxic activity against […] cancer cell line; format: functional, cell-based; conditions: Homo sapiens
SK-MEL-2 [4] = assay: cytotoxic activity against […] cancer cell line; format: functional, cell-based; conditions: Homo sapiens
A549 = assay: cytotoxic activity against […] cancer cell line; format: functional, cell-based; conditions: Homo sapiens
L1210 (1565) = assay: cytotoxic activity against leukemia (L-1210) cancer cell line; format: functional, cell-based; conditions: Mus musculus
P388 = assay: cytotoxic activity against leukemia (P-388) cancer cell line; format: functional, cell-based; conditions: Mus musculus

Row | SMILES | GI50 (BT-549 [1]) | GI50 (HL-60) | GI50 (MDA-N) | GI50 (LOX IMVI) | GI50 (MDA-MB-435) | GI50 (Malme-3M) | GI50 (M14) | GI50 (NCI-H23) | GI50 (NCI-H522) | GI50 (OVCAR-8) | GI50 (SK-MEL-2 [2]) | GI50 (SK-MEL-28) | GI50 (UACC-62) | GI50 (UACC-257) | GI50 (Hs-578T) | GI50 (SK-MEL-5) | GI50 (OVCAR-3) | other results
1 | CC(O)c1cc2c(s1)C(=O)c1ccsc1C2=O (configuration not stated) | 78 nM | 15 nM | 13 nM | 10 nM | < 10 nM | 16 nM | 15 nM | 15 nM | 120 nM | 200 nM | 91 nM | 17 nM | 16 nM | 15 nM | 110 nM | < 10 nM | 24 nM | –
2 | CC(=O)OC(C)c1cc2c(s1)C(=O)c1c(C(C)OC(C)=O)csc1C2=O (configuration not stated) | – | 68 nM | 210 nM | 1600 nM | 190 nM | 190 nM | 510 nM | 870 nM | < 10 nM | 460 nM | 1600 nM | 1700 nM | 1100 nM | 630 nM | 2100 nM | 630 nM | 280 nM | GI50 (BT-549 [3]): 2100 nM
3 | CC(=O)OC(C)c1cc2c(s1)C(=O)c1sccc1C2=O (configuration not stated) | 280 nM | 1700 nM | 19 nM | 210 nM | 180 nM | 120 nM | 160 nM | 220 nM | 870 nM | 1400 nM | 420 nM | 650 nM | 1400 nM | 210 nM | 510 nM | 110 nM | 490 nM | –
4 | CC(O)c1cc2c(s1)C(=O)c1sccc1C2=O (configuration not stated) | 35 nM | 69 nM | 19 nM | 24 nM | 16 nM | 19 nM | 15 nM | 16 nM | 120 nM | 160 nM | 31 nM | 39 nM | 22 nM | 18 nM | 58 nM | 14 nM | 120 nM | –
5 | CC(=O)c1cc2c(s1)C(=O)c1sccc1C2=O | 18 nM | < 10 nM | < 10 nM | < 10 nM | < 10 nM | 16 nM | 17 nM | 18 nM | 17 nM | 31 nM | 33 nM | < 10 nM | 17 nM | 14 nM | 36 nM | < 10 nM | < 10 nM | –
6 | CC(O)c1cc2c(s1)C(=O)c1c(C(C)O)csc1C2=O (configuration not stated) | – | 11 nM | 21 nM | 55 nM | 18 nM | 28 nM | 58 nM | 34 nM | 300 nM | 220 nM | 110 nM | 190 nM | 32 nM | 62 nM | 320 nM | 13 nM | 12 nM | GI50 (BT-549 [3]): 160 nM
7 | CC(=O)c1cc2c(s1)C(=O)c1scc(C(C)=O)c1C2=O | 910 nM | < 10 nM | 200 nM | 22 nM | 230 nM | 220 nM | 440 nM | 290 nM | 380 nM | 230 nM | 160 nM | 200 nM | 230 nM | 170 nM | 280 nM | 320 nM | 30 nM | –
8 | CC(=O)OC(C)c1cc2c(s1)C(=O)c1scc(C(C)OC(C)=O)c1C2=O (configuration not stated) | 200 nM | 650 nM | 59 nM | 120 nM | 21 nM | 130 nM | 120 nM | 160 nM | 200 nM | 230 nM | 150 nM | 210 nM | 200 nM | 170 nM | 250 nM | 34 nM | 270 nM | –
9 | O=C1c2ccsc2C(=O)c2sccc21 | – | – | – | – | – | – | – | – | – | – | – | – | – | – | – | – | – | IC50 (CAKI-1): 590 nM; IC50 (HCT-8): 170 nM; IC50 (KB): 270 nM; IC50 (MCF7): < 85 nM; IC50 (SK-MEL-2 [4]): 320 nM; IC50 (A549): 170 nM
10 | CC(O)c1cc2c(s1)C(=O)c1scc(C(C)O)c1C2=O (configuration not stated) | 200 nM | 440 nM | 150 nM | 120 nM | 160 nM | 150 nM | 160 nM | 190 nM | 400 nM | 260 nM | 200 nM | 230 nM | 250 nM | 160 nM | 320 nM | 140 nM | 360 nM | –
11 | CC(=O)c1cc2c(s1)C(=O)c1c(C(C)=O)csc1C2=O | – | 53 nM | 170 nM | 1100 nM | 180 nM | 130 nM | 1500 nM | 1300 nM | 530 nM | 1500 nM | 1700 nM | 1800 nM | 2000 nM | 560 nM | 2400 nM | 1200 nM | 230 nM | GI50 (BT-549 [3]): 1700 nM
12 | O=C1c2ccsc2C(=O)c2ccsc21 | – | – | – | – | – | – | – | – | – | – | – | – | – | – | – | – | – | IC50 (CAKI-1): 1500 nM; IC50 (HCT-8): 320 nM; IC50 (KB): 310 nM; IC50 (L1210 (1565)): 1700 nM; IC50 (MCF7): 480 nM; IC50 (P388): < 530 nM; IC50 (A549): 260 nM
13 | CC(=O)OC(C)c1cc2c(s1)C(=O)c1ccsc1C2=O (configuration not stated) | – | < 10 nM | < 10 nM | < 10 nM | < 10 nM | < 10 nM | 13 nM | 11 nM | 150 nM | 36 nM | 26 nM | 19 nM | 17 nM | 25 nM | 160 nM | 14 nM | < 10 nM | GI50 (BT-549 [3]): 46 nM
14 | CC(=O)c1cc2c(s1)C(=O)c1ccsc1C2=O | 180 nM | 45 nM | 37 nM | 25 nM | 37 nM | 117 nM | 130 nM | 150 nM | 160 nM | 300 nM | 200 nM | 160 nM | 210 nM | 130 nM | 160 nM | 23 nM | 160 nM | –
